Patent US5264372A (Amylin Pharmaceuticals, Inc., priority 1991, dated 1993)
Values belong to the compound of their own block, whether it stands above or below them.

Legend:
[1] = biological target: T1, ^125 I-h CGRP binding site (CGRP receptor) in rat liver membranes (Rattus norvegicus, UniProt Q63118+Q9JJ74); experiment: 125I-h CGRP binding to rat liver membranes (saturation and competition)
T1 construct: from tissue; host or cells: rat liver membranes
Experimental: Membranes were prepared from male Wistar or Sprague-Dawley rats (200-250 grams). Following decapitation, liver, soleus muscle and brain regions were removed to phosphate-buffered saline (PBS), pH 7.4 at 4° C. Tissues were weighed then placed in 5 ml/g tissue of ice-cold 20 mM HEPES buffer, pH 7.4, and homogenized with a Polytron at setting 4 for 10 seconds. An additional 30 ml of cold HEPES was added, and the homogenates centrifuged for 15 minutes at 48,000×g. After discarding the supernatant fluids, membrane pellets were homogenized in 40 ml of fresh HEPES buffer and centrifuged as before. Membranes were washed again by homogenization in buffer and centrifugation.
The final membrane pellet was resuspended in a volume of 20 mM HEPES buffer containing 0.2 mM PMSF added immediately before use from a stock 0.2 M solution in ethanol. A volume of buffer was used sufficient to yield a concentration of about 0 to about 20 mg original tissue/ml.
To 12×75 mm glass or polypropylene tubes were added 150 μl of HBBM buffer (20 mM HEPES buffer, pH 7.4, containing 1 mg/ml bacitracin, 1 mg/ml protease-free BSA Fraction V, 4 mM MgCl2) to which 0.2 mM PMSF was added just prior to use.
To this solution, 50 μl of unlabeled peptide diluted in HBBM buffer at concentrations of […] to 10^-6 M, were added. Control tubes contained HBBM alone. […] Incubations were begun by the addition of 250 μl of buffer containing membranes from 4 mg original weight of tissue, and continued for 60 minutes at room temperature (24° C.).
Suspensions were then filtered through GF/B glass fiber filters (previously soaked for 5 hours in 0.3% PEI) in a Brandel M-24 harvester. Filters were washed immediately before use with 5 ml of cold PBS, and immediately after filtration with 15 ml cold PBS. Filters were then counted in a gamma-counter.
The concentration of free ligand was derived by subtracting […] from total ligand added.
Scatchard and competition curve analysis was performed as described above.

rat liver membranes = experiment: 125I-r amylin binding to rat liver membranes; conditions: 15 pM tracer; 1 μM h CGRP or 1 μM r amylin as displacing peptide
Excerpt: (§1) Control tubes contained HBBM alone.
(§2) Filters were then counted in a gamma-counter.

[2] = system: rat soleus muscle membranes; experiment: Direct binding of labeled r amylin to rat soleus muscle membranes; conditions: by 1 μM unlabeled r amylin
Excerpt: as §1, §2

[3] = system: CGRP binding sites in cerebral cortex; conditions: human and rat cerebral cortex; cited from earlier work
[4] = system: insulin-stimulated glycogen synthesis in rat soleus muscle; experiment: Rat soleus muscle insulin-antagonism assay (inhibition of insulin-stimulated glycogen synthesis); type: cell-based; conditions: for Agonist activity in words: amylin receptors in rat skeletal muscle; for IC50: insulin 1000 μU/ml, read-out: IC50 for inhibition of the stimulation of glycogen synthesis by insulin
Experimental: The ability of insulin to stimulate glycogen synthesis in rat soleus muscle in vitro was measured as described by Leighton B. and Cooper, G. J. S., Nature 335:632-635 (1988), with the following modifications. Rats were unfed for 4 hours prior to sacrifice; muscles were not stretched on clips; bovine serum albumin (BSA) and HEPES were omitted from the assay medium; and, the insulin concentration used was 1000 μU/ml.

[5] = biological target: T2, CGRP binding sites (receptors) on liver membrane (Rattus norvegicus, UniProt Q63118+Q9JJ74); conditions: Morishita et al.; read-out: Affinity; cited from earlier work
T2 construct: host or cells: liver membranes; crude skeletal muscle membranes
T2 sequence (Q63118 24-464): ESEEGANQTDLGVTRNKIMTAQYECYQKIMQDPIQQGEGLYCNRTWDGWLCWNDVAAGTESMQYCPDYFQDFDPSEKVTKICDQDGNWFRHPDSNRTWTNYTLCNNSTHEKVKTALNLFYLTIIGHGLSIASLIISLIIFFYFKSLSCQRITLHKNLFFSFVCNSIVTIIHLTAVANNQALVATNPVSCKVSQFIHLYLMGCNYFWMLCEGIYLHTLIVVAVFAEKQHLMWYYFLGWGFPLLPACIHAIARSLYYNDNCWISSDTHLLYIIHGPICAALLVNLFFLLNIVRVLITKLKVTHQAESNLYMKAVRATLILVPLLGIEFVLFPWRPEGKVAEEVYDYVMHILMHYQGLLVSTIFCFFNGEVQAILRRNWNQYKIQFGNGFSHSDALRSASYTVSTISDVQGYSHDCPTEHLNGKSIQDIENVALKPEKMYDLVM
T2 sequence (Q9JJ74 27-148): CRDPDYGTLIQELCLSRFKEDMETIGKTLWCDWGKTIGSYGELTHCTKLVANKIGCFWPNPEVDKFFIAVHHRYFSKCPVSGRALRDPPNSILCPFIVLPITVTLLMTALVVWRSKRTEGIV

[6] = biological target: ^125 I-CGRP binding in skeletal muscle crude membrane preparations; conditions: Chantry et al.; cited from earlier work
[7] = biological target: T3, calcitonin sites in brain and renal membranes (Homo sapiens, UniProt P30988); conditions: cited from earlier work
T3 construct: host or cells: brain and renal membranes
T3 sequence (P30988 25-474): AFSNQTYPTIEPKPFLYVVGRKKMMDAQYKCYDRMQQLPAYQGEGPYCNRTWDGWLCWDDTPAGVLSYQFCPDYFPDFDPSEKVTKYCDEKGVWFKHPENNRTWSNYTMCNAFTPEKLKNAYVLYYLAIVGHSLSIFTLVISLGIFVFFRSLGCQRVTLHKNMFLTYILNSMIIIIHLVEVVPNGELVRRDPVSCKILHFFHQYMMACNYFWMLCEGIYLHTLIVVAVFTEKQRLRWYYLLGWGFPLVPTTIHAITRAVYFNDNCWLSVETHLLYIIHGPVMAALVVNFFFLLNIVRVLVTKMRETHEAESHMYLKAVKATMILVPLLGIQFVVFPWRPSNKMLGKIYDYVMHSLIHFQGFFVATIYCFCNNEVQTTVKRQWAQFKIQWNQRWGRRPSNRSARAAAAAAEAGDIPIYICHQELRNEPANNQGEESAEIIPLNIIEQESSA

[8] = Plasma glucose increment after i.v. peptide in fasted anesthetized rats; conditions: doses of 1 and 10 μg i.v.
[9] = biological target: ^125 I-CGRP binding sites in membranes from rat cerebellum (Rattus norvegicus, UniProt Q63118+Q9JJ74)
^125 I-CGRP binding sites in membranes from rat cerebellum, sequence (Q63118 24-464): as the sequence (Q63118 24-464) above
^125 I-CGRP binding sites in membranes from rat cerebellum, sequence (Q9JJ74 27-148): as the sequence (Q9JJ74 27-148) above
Experimental: Binding assays were carried out as described in Example II.
Cerebellum membranes were also tested, as this area contains high densities of CGRP receptors but low to absent amounts of the variant CGRP receptor subtypes present in nucleus accumbens (Sexton et al., 1988).

[10] = biological target: ^125 I-h CGRP binding sites in nucleus accumbens and surrounding regions; experiment: Competition for 125I-h CGRP binding to nucleus accumbens area (basal forebrain) membranes; parameters: species or system rat
Excerpt: From the ventral surface of rat brains, cuts were made rostral to the hypothalamus bounded laterally by the olfactory tracts and extending at a 45 angle medially from these tracts. This tissue, containing the nucleus accumbens and surrounding regions, was collected and weighed, and membranes prepared as described in Example I. The region from which tissue was collected as described above is here termed the basal forebrain, and includes the nucleus accumbens and surrounding regions.

T1 sequence (Q63118 24-464): as the sequence (Q63118 24-464) above
T1 sequence (Q9JJ74 27-148): as the sequence (Q9JJ74 27-148) above

Compound: ^125 I-r amylin: rat amylin Bolton-Hunter labeled with 125I at the N-terminal lysine, from Amersham
Specific binding to rat liver membranes (rat liver membranes): No specific binding | Proportion of total binding displaceable [2]: 15%

Compound: calcitonin
Fold less potent than rat or human CGRP [3]: 500-1000 fold

Compound: CGRP
Ki [5]: ~9 pM | IC50 [6]: 0.3 nM | Fold less potent in competing for calcitonin sites [7]: 500-1000 fold | Potency relative to h CGRP8-37 ([1]; liver membranes): 4 times | Potency relative to r amylin ([1]; liver membranes): about 200 fold

Compound: CC(C)C[C@H](NC(=O)[C@H](CC(N)=O)NC(=O)[C@H](CC(N)=O)NC(=O)[C@H](CO)NC(=O)[C@H](CO)NC(=O)[C@H](CCCNC(=N)N)NC(=O)[C@@H](NC(=O)[C@H](CC(C)C)NC(=O)[C@H](Cc1ccccc1)NC(=O)[C@H](CC(N)=O)NC(=O)[C@H](C)NC(=O)[C@H](CC(C)C)NC(=O)[C@H](CCCNC(=N)N)NC(=O)[C@H](CCC(N)=O)NC(=O)[C@@H](NC(=O)[C@H](C)NC(=O)[C@@H]1CSSC[C@H](NC(=O)[C@@H](N)CCCCN)C(=O)N[C@@H](CC(N)=O)C(=O)N[C@@H]([C@@H](C)O)C(=O)N[C@@H](C)C(=O)N[C@@H]([C@@H](C)O)C(=O)N1)[C@@H](C)O)C(C)C)C(=O)NCC(=O)N1CCC[C@H]1C(=O)N[C@H](C(=O)N[C@@H](CC(C)C)C(=O)N1CCC[C@H]1C(=O)N1CCC[C@H]1C(=O)N[C@H](C(=O)N[C@@H](CC(N)=O)C(=O)N[C@H](C(=O)NCC(=O)N[C@@H](CO)C(=O)N[C@@H](CC(N)=O)C(=O)N[C@H](C(=O)N[C@@H](Cc1ccc(O)cc1)C(N)=O)[C@@H](C)O)C(C)C)[C@@H](C)O)C(C)C [amylin]
Hyperglycemic effect compared with CGRP [8]: more effective hyperglycemic agent | IC50 [6]: 10 nM

Compound: CC(C)C[C@H](NC(=O)[C@H](CC(N)=O)NC(=O)[C@H](CC(N)=O)NC(=O)[C@H](CO)NC(=O)[C@H](CO)NC(=O)[C@H](CCCNC(=N)N)NC(=O)[C@@H](NC(=O)[C@H](CC(C)C)NC(=O)[C@H](Cc1ccccc1)NC(=O)[C@H](CC(N)=O)NC(=O)[C@H](C)NC(=O)[C@H](CC(C)C)NC(=O)[C@H](CCCNC(=N)N)NC(=O)[C@H](CCC(N)=O)NC(=O)[C@@H](NC(=O)[C@H](C)NC(=O)[C@@H]1CSSC[C@H](NC(=O)[C@@H](N)CCCCN)C(=O)N[C@@H](CC(N)=O)C(=O)N[C@@H]([C@@H](C)O)C(=O)N[C@@H](C)C(=O)N[C@@H]([C@@H](C)O)C(=O)N1)[C@@H](C)O)C(C)C)C(=O)NCC(=O)N1CCC[C@H]1C(=O)N[C@H](C(=O)N[C@@H](CC(C)C)C(=O)N1CCC[C@H]1C(=O)N1CCC[C@H]1C(=O)N[C@H](C(=O)N[C@@H](CC(N)=O)C(=O)N[C@H](C(=O)NCC(=O)N[C@@H](CO)C(=O)N[C@@H](CC(N)=O)C(=O)N[C@H](C(=O)N[C@@H](Cc1ccc(O)cc1)C(N)=O)[C@@H](C)O)C(C)C)[C@@H](C)O)C(C)C [r amylin, rat amylin]
Hill Slope [9]: -0.897 | IC50 [4]: 8.3 ± 1.9 nM | IC50 ([10]; Nucleus Accumbens Area, ^125 I-h CGRP tracer, r amylin 2 site fit): 5.89 nM | IC50 ([10]; high affinity site of biphasic inhibition): 0.026 nM | Hill Slope ([1]; competition against ^125 I-h CGRP, rat liver membranes): -0.67

Further lines, with some results ahead:

Increase of binding to liver membranes in the presence of MgCl2 ([1]; 2 mM MgCl2): about 2.8 fold | Bmax ([1]; Scatchard analysis, rat liver membranes): 49.4 fmol/mg protein
Compound: CC(C)C[C@H](NC(=O)CNC(=O)[C@H](C)NC(=O)[C@H](CC(C)C)NC(=O)[C@H](CCCNC(=N)N)NC(=O)[C@H](Cc1cnc(I)[nH]1)NC(=O)[C@@H](NC(=O)[C@@H](NC(=O)[C@@H]1CSSC[C@H](NC(=O)[C@H](C)N)C(=O)N[C@@H](CC(=O)O)C(=O)N[C@@H]([C@@H](C)O)C(=O)N[C@@H](C)C(=O)N[C@@H]([C@@H](C)O)C(=O)N1)C(C)C)[C@@H](C)O)C(=O)N[C@@H](CC(C)C)C(=O)N[C@@H](CO)C(=O)N[C@@H](CCCNC(=N)N)C(=O)N[C@@H](CO)C(=O)NCC(=O)NCC(=O)N[C@H](C(=O)N[C@H](C(=O)N[C@@H](CCCCN)C(=O)N[C@@H](CC(N)=O)C(=O)N[C@@H](CC(N)=O)C(=O)N[C@@H](Cc1ccccc1)C(=O)N[C@H](C(=O)N1CCC[C@H]1C(=O)N[C@H](C(=O)N[C@@H](CC(N)=O)C(=O)N[C@H](C(=O)NCC(=O)N[C@@H](CO)C(=O)N[C@@H](CCCCN)C(=O)N[C@@H](C)C(=O)N[C@@H](Cc1ccccc1)C(N)=O)C(C)C)[C@@H](C)O)C(C)C)C(C)C)C(C)C [^125 I-h CGRP]

IC50 [4]: 0.4 nM
Compound: eel calcitonin
Agonist activity in words [4]: potent agonists at amylin receptors

IC50 [4]: 0.38 nM
Compound: salmon calcitonin
Agonist activity in words [4]: potent agonists at amylin receptors
